Our source for the IC50 values is US9981964B2 (Agency for Science, Technology and Research, priority 2013, dated 2018).

This test concerns HEK293-STF3A cells. In words: STF3A assay (STF luciferase reporter in Wnt3A-expressing HEK293 cells). The test is classed as cell-based. Particulars: Homo sapiens, 24 h, 1 day of treatment. The text has this:
HEK293-STF cell line was modified from Human embryonic kidney cell line HEK293 transfected with the STF reporter. HEK293-STF3A cell line was further modified from HEK293-STF cell line to express Wnt3A. This cell line was used to identify compounds that regulate either early or late signaling components of the Wnt pathway. These two cell lines were obtained from David Virshup's laboratory, Duke-NUS. L-Wnt3A (ATCC, #CRL-2647) cell line was used for providing Wnt3A conditioned media. The three cell lines were grown in DMEM with 10% FBS incubated in 37° C. with 5% CO2.
2×10^4 HEK293-STF3A cells in 75 μl culture media were seeded in each well of white 96 well plates (Greiner #655098) and incubated overnight at 37° C. 25 μl serially diluted compound was added to the cells to give final concentration of 50 μM to 1.5 nM. After 1 day of treatment, 100 μl of Steady-Glo Luciferase Assay reagent (#E2520, Promega) was added to each well and incubated for 10 minutes at room temperature. Luminescence was measured using Tecan Safire2 plate reader.

With `CN1C(=O)C2=C(C1=O)N(CC(=O)Nc1ccc(-c3ccc(C(F)(F)F)nc3)nn1)CCC2` [Compound 45, 2-(6-methyl-5,7-dioxo-2,3,4,5,6,7-hexahydro-1H-pyrrolo[3,4-b]pyridin-1-yl)-N-(6-(6-(trifluoromethyl)pyridin-3-yl)pyridazin-3-yl)acetamide], the IC50 was less than 5000 nM.

The molecule `CN1C(=O)C2=C(C1=O)N(CC(=O)Nc1ccc(-c3ccc(F)nc3)nn1)CCC2` [Compound 46, N-(6-(6-fluoropyridin-3-yl)pyridazin-3-yl)-2-(6-methyl-5,7-dioxo-2,3,4,5,6,7-hexahydro-1H-pyrrolo[3,4-b]pyridin-1-yl)acetamide] yielded an IC50 of less than 100 nM.

Consider `CN1C(=O)C2=C(C1=O)N(CC(=O)Nc1ccc(-c3cccnn3)cc1)CCC2` [Compound 47, 2-(6-methyl-5,7-dioxo-2,3,4,5,6,7-hexahydro-1H-pyrrolo[3,4-b]pyridin-1-yl)-N-(4-(pyridazin-3-yl)phenyl)acetamide], for which the IC50 is less than 1000 nM.

The molecule `CN1C(=O)C2=C(C1=O)N(CC(=O)Nc1ccc(-c3cncc(C(F)(F)F)c3)nn1)CCC2` [Compound 48, 2-(6-methyl-5,7-dioxo-2,3,4,5,6,7-hexahydro-1H-pyrrolo[3,4-b]pyridin-1-yl)-N-(6-(5-(trifluoromethyl)pyridin-3-yl)pyridazin-3-yl)acetamide] gave an IC50 of less than 100 nM.

As for `CN1C(=O)C2=C(C1=O)N(CC(=O)Nc1ccc(-c3ccc(C(F)(F)F)cc3)nn1)CCC2` [Compound 49, 2-(6-methyl-5,7-dioxo-2,3,4,5,6,7-hexahydro-1H-pyrrolo[3,4-b]pyridin-1-yl)-N-(6-(4-(trifluoromethyl)phenyl)pyridazin-3-yl)acetamide], the IC50 is less than 10000 nM.

In the case of `CN1C(=O)C2=C(C1=O)N(CC(=O)Nc1ccc(-c3cccc(C(F)(F)F)c3)nn1)CCC2` [Compound 50, 2-(6-methyl-5,7-dioxo-2,3,4,5,6,7-hexahydro-1H-pyrrolo[3,4-b]pyridin-1-yl)-N-(6-(3-(trifluoromethyl)phenyl)pyridazin-3-yl)acetamide], the IC50 is less than 100 nM.

In turn, `O=C(CN1CCCC2=C1C(=O)N(C1CC1)C2=O)Nc1ccc(-c2ccc(C(F)(F)F)cc2)nn1` [Compound 51, 2-(6-cyclopropyl-5,7-dioxo-2,3,4,5,6,7-hexahydro-1H-pyrrolo[3,4-b]pyridin-1-yl)-N-(6-(4-(trifluoromethyl)phenyl)pyridazin-3-yl)acetamide] yielded an IC50 of less than 1000 nM.

Molecule `Cc1cncc(-c2ccc(NC(=O)CN3CCCC4=C3C(=O)N(C3CC3)C4=O)nn2)c1` [Compound 53, 2-(6-cyclopropyl-5,7-dioxo-2,3,4,5,6,7-hexahydro-1H-pyrrolo[3,4-b]pyridin-1-yl)-N-(6-(5-methylpyridin-3-yl)pyridazin-3-yl)acetamide] had an IC50 of less than 100 nM.

Turning to `O=C(CN1CCCC2=C1C(=O)N(C1CC1)C2=O)Nc1ccc(-c2cncc(C(F)(F)F)c2)nn1` [Compound 54, 2-(6-cyclopropyl-5,7-dioxo-2,3,4,5,6,7-hexahydro-1H-pyrrolo[3,4-b]pyridin-1-yl)-N-(6-(5-(trifluoromethyl)pyridin-3-yl)pyridazin-3-yl)acetamide], the IC50 is less than 100 nM.

Take `O=C(CN1CCCC2=C1C(=O)N(C1CC1)C2=O)Nc1ccc(-c2cccc(C(F)(F)F)c2)nn1` [Compound 55, 2-(6-cyclopropyl-5,7-dioxo-2,3,4,5,6,7-hexahydro-1H-pyrrolo[3,4-b]pyridin-1-yl)-N-(6-(3-(trifluoromethyl)phenyl)pyridazin-3-yl)acetamide]: the IC50 is less than 100 nM.

With `O=C(CN1CCCC2=C1C(=O)N(C1CC1)C2=O)Nc1ccc(-c2cccc(OC(F)(F)F)c2)nn1` [Compound 56, 2-(6-cyclopropyl-5,7-dioxo-2,3,4,5,6,7-hexahydro-1H-pyrrolo[3,4-b]pyridin-1-yl)-N-(6-(3-(trifluoromethoxy)phenyl)pyridazin-3-yl)acetamide], the IC50 was less than 1000 nM.

As for `O=C(CN1CCCC2=C1C(=O)N(C1CC1)C2=O)Nc1ccc(-c2ccc(OC(F)(F)F)cc2)nn1` [Compound 57, 2-(6-cyclopropyl-5,7-dioxo-2,3,4,5,6,7-hexahydro-1H-pyrrolo[3,4-b]pyridin-1-yl)-N-(6-(4-(trifluoromethoxy)phenyl)pyridazin-3-yl)acetamide], the concentration for half-maximal inhibition (IC50) was less than 1000 nM.

Consider `O=C(CN1CCCC2=C1C(=O)N(C1CC1)C2=O)Nc1ccc(-c2cncc(Cl)c2)nn1` [Compound 58, N-(6-(5-chloropyridin-3-yl)pyridazin-3-yl)-2-(6-cyclopropyl-5,7-dioxo-2,3,4,5,6,7-hexahydro-1H-pyrrolo[3,4-b]pyridin-1-yl)acetamide], for which the IC50 is less than 100 nM.

As to `O=C(CN1CCCC2=C1C(=O)N(C1CC1)C2=O)Nc1ccc(-c2cccnc2)nc1` [Compound 59, N-(2,3′-bipyridin-5-yl)-2-(6-cyclopropyl-5,7-dioxo-2,3,4,5,6,7-hexahydro-1H-pyrrolo[3,4-b]pyridin-1-yl)acetamide], the IC50 was less than 100 nM.

With `CC(C(=O)Nc1ccc(-c2cccnc2)nn1)N1CCCC2=C1C(=O)N(C)C2=O` (stereo not shown) [Compound 60, 2-(6-methyl-5,7-dioxo-2,3,4,5,6,7-hexahydro-1H-pyrrolo[3,4-b]pyridin-1-yl)-N-(6-(pyridin-3-yl)pyridazin-3-yl)propanamide], the IC50 is less than 100 nM.

Take `O=C(CN1CCCC2=C1C(=O)N(C1CC1)C2=O)Nc1ccc(-c2cncc(C(F)F)c2)nn1` [Compound 61]: the IC50 was less than 100 nM.

On to `Cc1cc(NC(=O)CN2CCCC3=C2C(=O)N(C2CC2)C3=O)nnc1-c1cccnc1` [Compound 62, 2-(6-cyclopropyl-5,7-dioxo-2,3,4,5,6,7-hexahydro-1H-pyrrolo[3,4-b]pyridin-1-yl)-N-(5-methyl-6-(pyridin-3-yl)pyridazin-3-yl)acetamide], for which the IC50 was less than 5000 nM.

The molecule `CN1C(=O)c2c(n(CC(=O)Nc3ccc(-c4cccnc4)cn3)ccc2=O)C1=O` [Compound 63, N-(3,3′-bipyridin-6-yl)-2-(6-methyl-4,5,7-trioxo-4,5,6,7-tetrahydro-1H-pyrrolo[3,4-b]pyridin-1-yl)acetamide] showed an IC50 of less than 1000 nM.

Turning to `CN1C(=O)c2c(n(CC(=O)Nc3ccc(-c4cccnc4)nn3)ccc2=O)C1=O` [Compound 64, 2-(6-methyl-4,5,7-trioxo-4,5,6,7-tetrahydro-1H-pyrrolo[3,4-b]pyridin-1-yl)-N-(6-(pyridin-3-yl)pyridazin-3-yl)acetamide], the half-maximal inhibitory concentration (IC50) is less than 1000 nM.

Regarding `O=C(CN1CCCC2=C1C(=O)N(C1CC1)C2=O)Nc1ccc(-c2ccccc2)cc1` [Compound 67, N-([1,1′-biphenyl]-4-yl)-2-(6-cyclopropyl-5,7-dioxo-2,3,4,5,6,7-hexahydro-1H-pyrrolo[3,4-b]pyridin-1-yl)acetamide], the IC50 was less than 100 nM.

Regarding `Cc1cncc(-c2ncc(NC(=O)CN3CCCC4=C3C(=O)N(C3CC3)C4=O)cc2C)c1` [Compound 68, 2-(6-cyclopropyl-5,7-dioxo-2,3,4,5,6,7-hexahydro-1H-pyrrolo[3,4-b]pyridin-1-yl)-N-(3,5′-dimethyl-[2,3′-bipyridin]-5-yl)acetamide], the IC50 was less than 100 nM.

As for `O=C(CN1CCCC2=C1C(=O)N(C1CC1)C2=O)Nc1ccc(-c2ccc(F)nc2)nn1` [Compound 69, 2-(6-cyclopropyl-5,7-dioxo-2,3,4,5,6,7-hexahydro-1H-pyrrolo[3,4-b]pyridin-1-yl)-N-(6-(6-fluoropyridin-3-yl)pyridazin-3-yl)acetamide], the IC50 was less than 100 nM.
